We go through 5 compounds from PubChem BioAssay (NCI).

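Dose response: 5 concentrations. Exposure: 48 h. Format: 96-well plates. Endpoint: linear interpolation; highest concentration if not reached. GI50 marks 50% less growth. TGI denotes the concentration required for complete inhibition of growth.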

Among the test systems are SK-MEL-2 melanoma; A549 NSCLC; BT-549 breast; OVCAR-5 ovarian; SF-268 CNS; UO-31 renal; HS 578T breast; HCT-116 colon; COLO 205 colon; CCRF-CEM leukemia.
What all share (assay): inhibition of tumour cell growth, NCI panel, 48 h

In the case of `COC(=O)[C@H](C)NC(=O)[C@@H](OC)[C@@H]1Cc2cc3cc(OC4CC(OC5CC(O)C(O)C(C)O5)C(O)C(C)O4)c(C)c(O)c3c(O)c2C(=O)[C@H]1OC1CC(OC2CC(OC3CC(C)(O)C(O)C(C)O3)C(O)C(C)O2)C(O)C(C)O1` (some centres undefined), the GI50 in the experiment on SK-MEL-2 melanoma is 0.0908 µM; in the experiment with A549 NSCLC, 0.195 µM; in the experiment on BT-549 breast it was 0.0881 µM; in the experiment on OVCAR-5 ovarian, 0.158 µM; in the experiment on SF-268 CNS it was 0.092 µM; in the experiment on UO-31 renal it was 0.182 µM. For the same compound, the GI50 in the experiment on HS 578T breast is 0.0983 µM; in the experiment with HCT-116 colon, 0.0245 µM; in the experiment on COLO 205 colon, 0.0934 µM; in the experiment on CCRF-CEM leukemia it was 0.147 µM. The TGI was 0.588 µM with SK-MEL-2 melanoma; over 50 µM in the experiment with A549 NSCLC; 1.2 µM with BT-549 breast; over 50 µM in the experiment with OVCAR-5 ovarian; over 50 µM with SF-268 CNS; 3.09 µM in the experiment with UO-31 renal. Also, the TGI is 2.17 µM in the experiment on HS 578T breast, over 50 µM in the experiment on HCT-116 colon, 1.09 µM in the experiment with COLO 205 colon and over 50 µM with CCRF-CEM leukemia.
For `CCNNC(=O)[C@@H]1[C@H](c2cc(OC)c(OC)c(OC)c2)c2cc3c(cc2[C@H](O)[C@H]1CO)OCO3`, the GI50 with SK-MEL-2 melanoma is 0.614 µM; with A549 NSCLC, 0.376 µM; with BT-549 breast, 0.413 µM; in the experiment on OVCAR-5 ovarian it was 0.519 µM; with SF-268 CNS it was 1.31 µM; in the experiment on UO-31 renal, 4.32 µM. Also, the GI50 was 0.376 µM in the experiment with HS 578T breast, 0.354 µM with HCT-116 colon, 0.266 µM with COLO 205 colon and 0.316 µM with CCRF-CEM leukemia. In addition, the TGI in the experiment on SK-MEL-2 melanoma, in the experiment on A549 NSCLC, in the experiment on OVCAR-5 ovarian, in the experiment on SF-268 CNS, with UO-31 renal and with HS 578T breast was over 100 µM throughout. Further, the TGI in the experiment on HCT-116 colon is over 100 µM; in the experiment with COLO 205 colon, 0.646 µM; in the experiment on CCRF-CEM leukemia, over 100 µM.
`O=c1oc2c3ccc4cnccc4c3[nH]c2c2ccccc12`: the GI50 with SK-MEL-2 melanoma is 18.8 µM; in the experiment on A549 NSCLC, 3.96 µM; with BT-549 breast, 14.2 µM; with OVCAR-5 ovarian, 16.9 µM; in the experiment on SF-268 CNS, 13.1 µM; in the experiment on UO-31 renal, 22.9 µM. Besides, the GI50 in the experiment on HS 578T breast is 21.3 µM; in the experiment on HCT-116 colon, 1.58 µM; in the experiment on COLO 205 colon, 4.24 µM; with CCRF-CEM leukemia it was 3.94 µM. Besides, the TGI in the experiment on SK-MEL-2 melanoma is 54.8 µM; in the experiment with A549 NSCLC, over 100 µM; in the experiment on BT-549 breast, 29.2 µM; in the experiment with OVCAR-5 ovarian, 40.9 µM; in the experiment on SF-268 CNS, over 100 µM; in the experiment with UO-31 renal, over 100 µM. Further, the TGI was over 100 µM with HS 578T breast, 2.99 µM with HCT-116 colon, 17.4 µM in the experiment on COLO 205 colon and 11.6 µM in the experiment on CCRF-CEM leukemia.
In the case of `c1ccc(B2OCC(C3OB(c4ccccc4)OC4COB(c5ccccc5)OC43)O2)cc1` (centres undefined), the TGI with SK-MEL-2 melanoma, with A549 NSCLC, with BT-549 breast, in the experiment on OVCAR-5 ovarian, in the experiment on SF-268 CNS and in the experiment on UO-31 renal was over 100 µM each time. The TGI in the experiment with HS 578T breast, in the experiment with HCT-116 colon, in the experiment on COLO 205 colon and in the experiment on CCRF-CEM leukemia was over 100 µM each time.
For the compound `C=C1C(OC/C=C/COC2O[C@@H]3O[C@@]4(C)CC[C@H]5[C@H](C)CC[C@@H](C2=C)[C@@]35OO4)O[C@@H]2O[C@@]3(C)CC[C@H]4[C@H](C)CC[C@@H]1[C@@]24OO3` (some centres undefined), the GI50 is 16 µM with SK-MEL-2 melanoma; 7.48 µM in the experiment on A549 NSCLC; 3.07 µM in the experiment with BT-549 breast; 0.0489 µM with OVCAR-5 ovarian; 5.87 µM with SF-268 CNS; 2.23 µM in the experiment on UO-31 renal. Moreover, the GI50 is 12.6 µM with HS 578T breast, 0.0907 µM in the experiment with HCT-116 colon, 0.226 µM with COLO 205 colon and 0.0325 µM with CCRF-CEM leukemia. In addition, the TGI in the experiment on SK-MEL-2 melanoma was over 100 µM; in the experiment with A549 NSCLC, over 60.5 µM; with BT-549 breast it was 41.1 µM; with OVCAR-5 ovarian, 18.8 µM; in the experiment with SF-268 CNS, 30.9 µM; in the experiment with UO-31 renal, over 39.4 µM. Further, the TGI in the experiment with HS 578T breast is 59.6 µM; with HCT-116 colon it was 16.6 µM; with COLO 205 colon it was 13.6 µM; in the experiment with CCRF-CEM leukemia, over 40 µM.
